The record followed here is patent US20170052170A1, “NOVEL CELL LINES AND METHODS” (priority 2009, published 2017).

Molecules are shown by their SMILES.

In test [1] the target is T1, umami taste receptor (T1R1 and T1R3 subunits, Gα15) (Homo sapiens, UniProt Q7RTX0+Q7RTX1, C757R).
T1 construct: expressed in transfected cells; host or cells: HEK293T (ATCC CRL-11268)
T1 sequence (Q7RTX1 21-841): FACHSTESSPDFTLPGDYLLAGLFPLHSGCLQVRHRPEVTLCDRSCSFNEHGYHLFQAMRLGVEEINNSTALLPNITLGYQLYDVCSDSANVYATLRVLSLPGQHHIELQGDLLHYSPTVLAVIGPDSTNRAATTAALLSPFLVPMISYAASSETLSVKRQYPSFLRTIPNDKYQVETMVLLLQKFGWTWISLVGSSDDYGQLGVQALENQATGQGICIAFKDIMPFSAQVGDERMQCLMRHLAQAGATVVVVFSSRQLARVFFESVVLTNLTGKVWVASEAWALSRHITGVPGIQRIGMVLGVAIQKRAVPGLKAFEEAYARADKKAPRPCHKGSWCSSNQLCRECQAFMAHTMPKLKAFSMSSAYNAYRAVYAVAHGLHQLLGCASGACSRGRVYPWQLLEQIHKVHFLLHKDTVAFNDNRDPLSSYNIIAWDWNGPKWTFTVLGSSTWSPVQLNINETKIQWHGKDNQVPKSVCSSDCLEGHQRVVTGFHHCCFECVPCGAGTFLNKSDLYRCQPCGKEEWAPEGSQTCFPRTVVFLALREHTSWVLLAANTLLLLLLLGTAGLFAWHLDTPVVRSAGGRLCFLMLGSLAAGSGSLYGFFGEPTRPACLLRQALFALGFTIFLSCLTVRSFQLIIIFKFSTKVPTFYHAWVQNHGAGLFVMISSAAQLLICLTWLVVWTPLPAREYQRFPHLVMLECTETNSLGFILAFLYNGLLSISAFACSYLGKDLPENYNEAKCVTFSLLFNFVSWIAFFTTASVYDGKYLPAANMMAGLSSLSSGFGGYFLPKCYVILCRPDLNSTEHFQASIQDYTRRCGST
T1 sequence (Q7RTX0 21-852 C757R): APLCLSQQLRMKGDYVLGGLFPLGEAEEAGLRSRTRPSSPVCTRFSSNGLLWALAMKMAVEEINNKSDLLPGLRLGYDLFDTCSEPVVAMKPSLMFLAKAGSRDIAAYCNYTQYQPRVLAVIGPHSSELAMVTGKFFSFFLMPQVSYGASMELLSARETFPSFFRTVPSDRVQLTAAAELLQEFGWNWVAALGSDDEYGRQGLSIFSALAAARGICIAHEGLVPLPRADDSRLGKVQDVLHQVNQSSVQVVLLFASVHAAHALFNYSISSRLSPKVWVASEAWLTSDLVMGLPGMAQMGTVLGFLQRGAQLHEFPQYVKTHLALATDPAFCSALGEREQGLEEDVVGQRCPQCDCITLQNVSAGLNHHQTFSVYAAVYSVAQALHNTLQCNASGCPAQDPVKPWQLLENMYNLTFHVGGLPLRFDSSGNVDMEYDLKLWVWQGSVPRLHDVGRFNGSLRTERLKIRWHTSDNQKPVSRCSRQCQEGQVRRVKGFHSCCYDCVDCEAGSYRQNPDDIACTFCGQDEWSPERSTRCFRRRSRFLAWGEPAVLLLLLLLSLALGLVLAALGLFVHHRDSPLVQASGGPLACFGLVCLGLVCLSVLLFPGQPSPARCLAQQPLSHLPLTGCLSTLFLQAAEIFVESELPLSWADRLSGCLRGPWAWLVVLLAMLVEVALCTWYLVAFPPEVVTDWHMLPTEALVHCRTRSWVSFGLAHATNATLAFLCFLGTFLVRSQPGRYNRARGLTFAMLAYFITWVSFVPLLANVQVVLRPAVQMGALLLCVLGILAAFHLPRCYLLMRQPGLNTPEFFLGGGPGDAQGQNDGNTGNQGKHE
Description: umami taste receptor-expressing cell-based assay. The note with it: FIGS. 9-12. The source says:
To identify a taste receptor modulator (e.g., umami taste receptor modulator or sweet taste receptor modulator), one exposes a cell or cell line of the invention to a test compound under conditions in which the taste receptor (e.g., umami taste receptor or sweet taste receptor) would be expected to be functional and then detects a statistically significant change (e.g., p<0.05) in taste receptor activity (e.g., umami taste receptor activity or sweet taste receptor activity) compared to a suitable control, e.g., cells that are not exposed to the test compound. Positive and/or negative controls using known agonists or antagonists and/or cells expressing different combinations of taste receptor subunits (e.g., umami taste receptor subunits or sweet taste receptor subunits) (and optionally a G protein) may also be used. In some embodiments, the taste receptor activity (e.g., umami taste receptor activity or sweet taste receptor activity) to be detected and/or measured is calcium release from the endoplasmic reticulum as a result of the down stream signaling events following taste receptor activation (e.g., umami taste receptor activation or sweet taste receptor activation). One of ordinary skill in the art would understand that various assay parameters may be optimized, e.g., signal to noise ratio.

Test [2] has as its target T2, sweet taste receptor (T1R2/T1R3) (Homo sapiens, UniProt Q7RTX0+Q8TE23, C757R/I191V/I486V/R317G).
T2 construct: expressed in transfected cells; host or cells: HEK293T (ATCC CRL-11268)
T2 sequence (Q8TE23 20-839 I191V/R317G/I486V): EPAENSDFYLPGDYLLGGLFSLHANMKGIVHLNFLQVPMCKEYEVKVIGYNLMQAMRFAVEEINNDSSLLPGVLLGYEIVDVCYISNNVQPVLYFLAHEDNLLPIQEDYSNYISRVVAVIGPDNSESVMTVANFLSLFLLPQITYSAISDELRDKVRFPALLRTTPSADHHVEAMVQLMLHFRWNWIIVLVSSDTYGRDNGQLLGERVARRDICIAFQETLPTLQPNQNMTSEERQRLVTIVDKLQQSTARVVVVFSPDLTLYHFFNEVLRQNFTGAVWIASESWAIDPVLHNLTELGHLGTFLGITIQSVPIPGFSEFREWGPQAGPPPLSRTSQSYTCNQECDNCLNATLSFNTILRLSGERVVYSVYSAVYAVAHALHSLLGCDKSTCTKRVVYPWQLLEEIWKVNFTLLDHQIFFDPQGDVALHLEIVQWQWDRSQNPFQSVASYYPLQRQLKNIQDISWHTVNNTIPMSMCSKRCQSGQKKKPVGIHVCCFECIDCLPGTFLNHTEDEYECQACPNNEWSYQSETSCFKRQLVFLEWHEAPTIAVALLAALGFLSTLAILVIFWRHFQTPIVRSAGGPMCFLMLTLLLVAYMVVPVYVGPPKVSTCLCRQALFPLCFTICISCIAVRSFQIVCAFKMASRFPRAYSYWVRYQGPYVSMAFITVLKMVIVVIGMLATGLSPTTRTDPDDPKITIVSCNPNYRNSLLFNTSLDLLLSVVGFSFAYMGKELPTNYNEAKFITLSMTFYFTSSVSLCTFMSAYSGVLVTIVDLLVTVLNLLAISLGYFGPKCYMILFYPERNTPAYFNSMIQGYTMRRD
T2 sequence (Q7RTX0 21-852 C757R): T1 sequence (Q7RTX0 21-852 C757R)
Description: Sweet cell-based calcium flux assay, HEK293T cells expressing T1R2, T1R3 and mouse Gα15. The conditions noted are these: FIG. 20; high density, coated plates, low glucose media, serum deprivation. For orientation: Calcium assays in cells follow changes in intracellular calcium, usually with a dye or a luminescent sensor.
Description: Plates are then loaded on a high throughput plate reader (Hamamatsu FDSS). […] Calcium flux is detected for 90 seconds.

In the case of `N[C@@H](CCC(=O)O)C(=O)[O-].[Na+]` [MSG, monosodium glutamate], the “response of umami taste receptor cells and cell lines to known classes of umami compounds” value in test [1] is on record as “respond”. Moreover, the “response of cells grown in the "Final" growth conditions” value in test [2] was “not”.
